# Results from article PMC11480511 (Scientific Reports, 2024).
# Read-outs that look alike come from different tables or passages of the source.
# Assays:
# LOX IMVI = assay: NCI single-dose growth inhibition screen; format: cell-based, human; conditions: Melanoma LOX IMVI, single dose 10^−5 M; for inhibition at 10 µM: Homo sapiens, LOX IMVI
# UACC-257 = assay: NCI single-dose growth inhibition screen; format: cell-based; conditions: Homo sapiens; Melanoma UACC-257; single dose 10^−5 M
# NCI-H23 = assay: NCI single-dose growth inhibition screen; format: cell-based; conditions: Homo sapiens; Non-Small Cell Lung Cancer NCI-H23; single dose 10^−5 M
# PC-3 = assay: NCI single-dose growth inhibition screen; format: cell-based; conditions: Homo sapiens; Prostate Cancer PC-3; single dose 10^−5 M
# HOP-92 = assay: NCI single-dose growth inhibition screen; format: cell-based; conditions: Homo sapiens; Non-Small Cell Lung Cancer HOP-92; single dose 10^−5 M
# NCI-H322M = assay: NCI single-dose growth inhibition screen; format: cell-based; conditions: Homo sapiens; Non-Small Cell Lung Cancer NCI-H322M; single dose 10^−5 M
# MCF7 = assay: NCI single-dose growth inhibition screen; format: cell-based, human; conditions: Homo sapiens, MCF7, Breast Cancer MCF7; single dose 10^−5 M
# ACHN = assay: NCI single-dose growth inhibition screen; format: cell-based; conditions: Homo sapiens; Renal Cancer ACHN; single dose 10^−5 M
# E. coli ATCC 25,922 = assay: Antibacterial screening, agar cup diffusion method; format: cell-based; conditions: read-out: Minimum inhibitory concentrations (MIC, µM) E. coli ATCC 25,922
# Description: (§1) Anti-bacterial activity of the recently synthesized compounds 3a-k was evaluated at AUMC (Assiut University Mycological Centre), Assiut, Egypt. Assays were done against Gram-negative strains of K. pneumoniae (ATCC 100310, E. coli (ATCC 25922), Pseudomonas aeruginosa (ATCC 27853) and the Gram-positive S. aureus (ATCC 6538) strain utilizing standard agar cup diffusion method. The isolates from the four bacterial species examined were kept in TSB (Trypticase Soya Broth, Becton and Dickinson) with 10% glycerol at -70 °C and then subcultured on TSA (Trypticase Soya Agar, Becton and Dickinson) and TSB for 24 h at 37 °C former to inoculation. Bacterial isolates were then plated on sterile petri plates with 1 × 10^8 CFU/mL (0.5 McFarland turbidity) and 20 mL of Mueller Hinton Agar media (Oxoid) was then loaded. To ensure that the microorganisms were evenly dispersed, the plates were gently rotated before being left to harden on a level surface. Four equally spaced spherical-shaped wells (10 mm diameter) were painstakingly drilled using a sterilized cork bore after media solidification. All tested compounds under test underwent two-fold serial dilutions in a sequential manner. Three replications of 100 µL of each concentration were added to a well using a micropipette. Plates were then incubated for 24-hour at 37 °C. The average of the inhibition zones was then calculated. To determine the MICs, the natural logarithm of each diluted test substance’s concentration was plotted against the average area of the related inhibition zone. Following that, a regression line was created and the intercept on the ‘ln concentration” axis was determined, and the antilogarithm was calculated to indicate the MIC value[34],[63].
# T-47D = assay: NCI single-dose growth inhibition screen; format: cell-based; conditions: Homo sapiens, T47D; Breast Cancer T-47D; single dose 10^−5 M
# SK-MEL-2 = assay: NCI single-dose growth inhibition screen; format: cell-based; conditions: Homo sapiens; Melanoma SK-MEL-2; single dose 10^−5 M
# human melanoma LOX IMVI = assay: cells; conditions: for IC50: read-out: In vitro cytotoxicity (IC50) LOX IMVI (µM ± SEM)
# MOLT-4 = assay: NCI single-dose growth inhibition screen; format: cell-based; conditions: Homo sapiens; Leukemia MOLT-4; single dose 10^−5 M
# [1] = system: A498 renal cancer cell line; assay: cells; conditions: Homo sapiens; for viability at 0.4 µM / viability at 1.6 µM / viability at 25 µM / viability at 100 µM: A498; for IC50: A498, read-out: In vitro cytotoxicity (IC50) A498 cell line (µM ± SEM)
# SNB-75 = assay: NCI single-dose growth inhibition screen; format: cell-based, human; conditions: single dose 10^−5 M; for Growth Inhibition (%): CNS Cancer SNB-75; for inhibition at 10 µM: Homo sapiens, SNB-75, CNS Cancer SNB-75
# SN12C = assay: NCI single-dose growth inhibition screen; format: cell-based; conditions: Homo sapiens; Renal Cancer SN12C; single dose 10^−5 M
# RXF 393 = assay: NCI single-dose growth inhibition screen; format: cell-based; conditions: Homo sapiens; Renal Cancer RXF 393; single dose 10^−5 M
# SK-MEL-5 = assay: NCI single-dose growth inhibition screen; format: cell-based, human; conditions: Homo sapiens, SK-MEL-5, Melanoma SK-MEL-5; single dose 10^−5 M
# MDA-MB-468 = assay: NCI single-dose growth inhibition screen; format: cell-based; conditions: Homo sapiens; Breast Cancer MDA-MB-468; single dose 10^−5 M
# NCI-H460 = assay: NCI single-dose growth inhibition screen; format: cell-based; conditions: Homo sapiens; Non-Small Cell Lung Cancer NCI-H460; single dose 10^−5 M
# BT-549 = assay: NCI single-dose growth inhibition screen; format: cell-based; conditions: Homo sapiens; Breast Cancer BT-549; single dose 10^−5 M
# HL-60(TB) = assay: NCI single-dose growth inhibition screen; format: cell-based; conditions: Homo sapiens; Leukemia HL-60(TB); single dose 10^−5 M
# OVCAR-8 = assay: NCI single-dose growth inhibition screen; format: cell-based; conditions: Homo sapiens; Ovarian Cancer OVCAR-8; single dose 10^−5 M
# UACC-62 = assay: NCI single-dose growth inhibition screen; format: cell-based; conditions: Homo sapiens; Melanoma UACC-62; single dose 10^−5 M
# IGROV1 = assay: NCI single-dose growth inhibition screen; format: cell-based; conditions: Homo sapiens, IGROV-1; Ovarian Cancer IGROV1; single dose 10^−5 M
# [2] = system: P. aeruginosa ATCC 27,853; assay: Antibacterial screening, agar cup diffusion method; format: cell-based; conditions: Pseudomonas aeruginosa, ATCC27; Gram –ve strain; read-out: Minimum inhibitory concentrations (MIC, µM) P. aeruginosa ATCC 27,853
# Description: as §1
# MALME-3 M = assay: NCI single-dose growth inhibition screen; format: cell-based; conditions: Homo sapiens; Melanoma MALME-3 M; single dose 10^−5 M
# RPMI-8226 = assay: NCI single-dose growth inhibition screen; format: cell-based; conditions: Homo sapiens; Leukemia RPMI-8226; single dose 10^−5 M
# TK-10 = assay: NCI single-dose growth inhibition screen; format: cell-based; conditions: Homo sapiens; Renal Cancer TK-10; single dose 10^−5 M
# HCT-116 = assay: NCI single-dose growth inhibition screen; format: cell-based; conditions: Homo sapiens; Colon Cancer HCT-116; single dose 10^−5 M
# HOP-62 = assay: NCI single-dose growth inhibition screen; format: cell-based; conditions: Homo sapiens; Non-Small Cell Lung Cancer HOP-62; single dose 10^−5 M
# NCI-H522 = assay: NCI single-dose growth inhibition screen; format: cell-based; conditions: Homo sapiens; Non-Small Cell Lung Cancer NCI-H522; single dose 10^−5 M
# HS 578T = assay: NCI single-dose growth inhibition screen; format: cell-based; conditions: Homo sapiens; Breast Cancer HS 578T; single dose 10^−5 M
# [3] = Escherichia coli, ATCC25, Gram –ve strain
structure (smiles),measurement,setting,value
"O=C(O)c1cn(C2CC2)c2cc(N3CCN(C(=O)CCCN4C(=O)CSC4=O)CC3)c(F)cc2c1=O [3 L, 1-Cyclopropyl-7-(4-(4-(2,4-dioxothiazolidin-3-yl)butanoyl)piperazin-1-yl)-6-fluoro-4-oxo-1,4-dihydroquinoline-3-carboxylic acid]",inhibition at 10 µM,LOX IMVI,0%
same,Growth Inhibition (%),LOX IMVI,- (- means no detected activity)
same,inhibition at 10 µM,UACC-257,< 0%
same,melting point,,230 °C
same,inhibition at 10 µM,NCI-H23,5.7%
same,inhibition at 10 µM,PC-3,2.4%
same,inhibition at 10 µM,HOP-92,0.7%
same,inhibition at 10 µM,NCI-H322M,0%
same,inhibition at 10 µM,MCF7,< 0%
same,inhibition at 10 µM,ACHN,0.6%
same,MIC,"E. coli ATCC 25,922; [3]",> 20 µM
same,inhibition at 10 µM,T-47D,< 0%
same,inhibition at 10 µM,SK-MEL-2,< 0%
same,viability at 0.4 µM,human melanoma LOX IMVI,84.8%
same,viability at 1.6 µM,human melanoma LOX IMVI,78.9%
same,viability at 25 µM,human melanoma LOX IMVI,59.8%
same,viability at 100 µM,human melanoma LOX IMVI,49.1%
same,IC50,human melanoma LOX IMVI,109 ± 6.15 µM
same,inhibition at 10 µM,MOLT-4,< 0%
same,viability at 0.4 µM,[1],92.2%
same,viability at 1.6 µM,[1],80.2%
same,viability at 25 µM,[1],59.6%
same,viability at 100 µM,[1],49.1%
same,IC50,[1],80.7 ± 4.55 µM
same,Growth Inhibition (%),SNB-75,51.1%
same,inhibition at 10 µM,SNB-75,51.1%
same,inhibition at 10 µM,SN12C,14.6%
same,inhibition at 10 µM,RXF 393,30.7%
same,inhibition at 10 µM,SK-MEL-5,< 0%
same,inhibition at 10 µM,MDA-MB-468,2.1%
same,inhibition at 10 µM,NCI-H460,0%
same,inhibition at 10 µM,BT-549,4.8%
same,inhibition at 10 µM,HL-60(TB),< 0%
same,inhibition at 10 µM,OVCAR-8,< 0%
same,inhibition at 10 µM,UACC-62,8.4%
same,inhibition at 10 µM,IGROV1,15.3%
same,MIC,[2],> 20 µM
same,inhibition at 10 µM,MALME-3 M,< 0%
same,inhibition at 10 µM,RPMI-8226,6%
same,inhibition at 10 µM,TK-10,28.7%
same,inhibition at 10 µM,HCT-116,< 0%
same,inhibition at 10 µM,HOP-62,16.8%
"COc1ccc(C=C2SC(=O)N(CCCC(=O)N3CCN(c4cc5c(cc4F)c(=O)c(C(=O)O)cn5C4CC4)CC3)C2=O)cc1 [3e, 1-cyclopropyl-6-fluoro-7-[4-[4-[5-[(4-methoxyphenyl)methylene]-2,4-dioxo-thiazolidin-3-yl]butanoyl]piperazin-1-yl]-4-oxoquinoline-3-carboxylic acid]",inhibition at 10 µM,LOX IMVI,42.5%
same,inhibition at 10 µM,UACC-257,19.7%
same,inhibition at 10 µM,NCI-H23,2.6%
same,inhibition at 10 µM,PC-3,< 0%
same,inhibition at 10 µM,NCI-H522,25.7%
same,inhibition at 10 µM,HOP-92,8.3%
same,inhibition at 10 µM,NCI-H322M,6%
same,inhibition at 10 µM,MCF7,< 0%
same,inhibition at 10 µM,ACHN,1.2%
same,MIC,"E. coli ATCC 25,922; [3]",1.94 to 2.6 µM
same,MIC,"E. coli ATCC 25,922; Gram –ve strain",1.94 µM
same,inhibition at 10 µM,T-47D,0.6%
same,inhibition at 10 µM,SK-MEL-2,6.5%
same,viability at 0.4 µM,human melanoma LOX IMVI,76.7%
same,viability at 1.6 µM,human melanoma LOX IMVI,67.7%
same,viability at 25 µM,human melanoma LOX IMVI,52%
same,viability at 100 µM,human melanoma LOX IMVI,47.4%
same,inhibition at 10 µM,HS 578T,2.4%
same,inhibition at 10 µM,MOLT-4,< 0%
same,viability at 0.4 µM,[1],102%
same,viability at 1.6 µM,[1],91.7%
same,viability at 25 µM,[1],69.4%
same,viability at 100 µM,[1],56.2%
same,inhibition at 10 µM,SNB-75,12.6%
same,inhibition at 10 µM,SN12C,< 0%
same,inhibition at 10 µM,RXF 393,< 0%
same,inhibition at 10 µM,SK-MEL-5,3.9%
same,inhibition at 10 µM,MDA-MB-468,< 0%
same,inhibition at 10 µM,NCI-H460,0%
same,inhibition at 10 µM,BT-549,10.3%
same,inhibition at 10 µM,HL-60(TB),< 0%
same,inhibition at 10 µM,OVCAR-8,5.3%
same,inhibition at 10 µM,UACC-62,7%
same,inhibition at 10 µM,IGROV1,< 0%
same,MIC,[2],> 20 µM
same,inhibition at 10 µM,MALME-3 M,2.9%
same,inhibition at 10 µM,RPMI-8226,< 0%
same,inhibition at 10 µM,TK-10,11.3%
same,inhibition at 10 µM,HCT-116,0%
same,inhibition at 10 µM,HOP-62,< 0%
O=C(O)c1cn(C2CC2)c2cc(N3CCN(C(=O)CCCN4C(=O)S/C(=C\c5ccc([N+](=O)[O-])cc5)C4=O)CC3)c(F)cc2c1=O [3k],inhibition at 10 µM,LOX IMVI,8.88%
same,Growth Inhibition (%),LOX IMVI,8.9%
same,inhibition at 10 µM,UACC-257,< 0%
same,melting point,,299 to 300 °C
same,inhibition at 10 µM,NCI-H23,6.2%
same,inhibition at 10 µM,PC-3,< 0%
same,inhibition at 10 µM,HOP-92,0.2%
same,inhibition at 10 µM,NCI-H322M,< 0%
same,inhibition at 10 µM,MCF7,< 0%
same,inhibition at 10 µM,ACHN,0.1%
same,MIC,"E. coli ATCC 25,922; [3]",0.25 µM
same,inhibition at 10 µM,T-47D,< 0%
same,inhibition at 10 µM,SK-MEL-2,< 0%
same,viability at 0.4 µM,human melanoma LOX IMVI,110%
same,viability at 1.6 µM,human melanoma LOX IMVI,102%
same,viability at 25 µM,human melanoma LOX IMVI,80.2%
same,viability at 100 µM,human melanoma LOX IMVI,65.4%
same,IC50,human melanoma LOX IMVI,> 150 µM
same,inhibition at 10 µM,MOLT-4,< 0%
same,viability at 0.4 µM,[1],103%
same,viability at 1.6 µM,[1],93.1%
same,viability at 25 µM,[1],72.6%
same,viability at 100 µM,[1],60.5%
same,IC50,[1],> 150 µM
same,Growth Inhibition (%),SNB-75,42.5%
same,inhibition at 10 µM,SNB-75,42.5%
same,inhibition at 10 µM,SN12C,8.7%
same,inhibition at 10 µM,RXF 393,47.9%
same,inhibition at 10 µM,SK-MEL-5,0.8%
same,inhibition at 10 µM,MDA-MB-468,< 0%
same,inhibition at 10 µM,NCI-H460,< 0%
same,inhibition at 10 µM,BT-549,1%
same,inhibition at 10 µM,HL-60(TB),< 0%
same,inhibition at 10 µM,OVCAR-8,< 0%
same,inhibition at 10 µM,UACC-62,2%
same,inhibition at 10 µM,IGROV1,15.9%
same,MIC,[2],> 20 µM
same,inhibition at 10 µM,MALME-3 M,< 0%
same,inhibition at 10 µM,RPMI-8226,8.7%
same,inhibition at 10 µM,TK-10,33.5%
same,inhibition at 10 µM,HCT-116,< 0%
same,inhibition at 10 µM,HOP-62,19.7%
